Assay results published in the supplement of paper PMC10307832.

What was measured:
Test in all cases: relative viability (nuclei count vs DMSO), 5 days (fraction); higher = more cells survive
[1] = system: HCC-15
Procedure, shortened: (§1)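 One day after seeding in 1536-well plates, lung cancer cell lines were dosed by pin tool. Dosing was either single-drug or a fixed anchor-drug dose plus five library-drug doses (not always all listed) in √10 steps. After 5 days, nuclei were stained in one fix-and-stain step and counted on 4× images, and relative viability is the nuclei count of treated wells over that of vehicle wells, given as the median of duplicate plates.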

[2] = system: NCI-H358
Procedure, shortened: as §1

[3] = system: NCI-H1792
Procedure, shortened: as §1

[4] = system: NCI-H23
Procedure, shortened: as §1

[5] = system: NCI-H1437
Procedure, shortened: as §1

[6] = system: NCI-H1793
Procedure, shortened: as §1

[7] = system: NCI-H1755
Procedure, shortened: as §1

[8] = system: COR-L23
Procedure, shortened: as §1

[9] = system: NCI-H2342
Procedure, shortened: as §1

[10] = system: PC-14
Procedure, shortened: as §1

[11] = system: NCI-H2347
Procedure, shortened: as §1

[12] = system: 201T
Procedure, shortened: as §1

[13] = system: HCC-366
Procedure, shortened: as §1

[14] = system: NCI-H1915
Procedure, shortened: as §1

[15] = system: NCI-H2009
Procedure, shortened: as §1

[16] = system: NCI-H1395
Procedure, shortened: as §1

[17] = system: EMC-BAC-2
Procedure, shortened: as §1

[18] = system: NCI-H650
Procedure, shortened: as §1

[19] = system: NCI-H2023
Procedure, shortened: as §1

[20] = system: COR-L 105
Procedure, shortened: as §1

[21] = system: SK-MES-1
Procedure, shortened: as §1

[22] = system: LC-2-ad
Procedure, shortened: as §1

SMILES: CN1CCN(CCOc2cc(OC3CCOCC3)c3c(Nc4c(Cl)ccc5c4OCO5)ncnc3c2)CC1 [Saracatinib] + CC(=O)Nc1cccc(-n2c(=O)n(C3CC3)c(=O)c3c(Nc4ccc(I)cc4F)n(C)c(=O)c(C)c32)c1 [Trametinib] (partner 0.02 µM)
- relative viability ([1]; first compound 0.02 µM): 0.44
- relative viability ([1]; first compound 0.2 µM): 0.371
- relative viability ([1]; first compound 0.6325 µM): 0.455
- relative viability ([1]; first compound 2 µM): 0.388
- relative viability ([2]; first compound 0.02 µM): 0.156
- relative viability ([2]; first compound 0.2 µM): 0.131
- relative viability ([2]; first compound 0.6325 µM): 0.105
- relative viability ([2]; first compound 2 µM): 0.0979
- relative viability ([3]; first compound 0.02 µM): 0.492
- relative viability ([3]; first compound 0.2 µM): 0.355
- relative viability ([3]; first compound 0.6325 µM): 0.382
- relative viability ([3]; first compound 2 µM): 0.3
- relative viability ([4]; first compound 0.02 µM): 0.344
- relative viability ([4]; first compound 0.6325 µM): 0.351
- relative viability ([4]; first compound 2 µM): 0.218
- relative viability ([5]; first compound 0.02 µM): 0.652
- relative viability ([5]; first compound 0.2 µM): 0.538
- relative viability ([5]; first compound 0.6325 µM): 0.733
- relative viability ([5]; first compound 2 µM): 0.538
- relative viability ([6]; first compound 0.02 µM): 0.439
- relative viability ([6]; first compound 0.2 µM): 0.395
- relative viability ([6]; first compound 0.6325 µM): 0.513
- relative viability ([6]; first compound 2 µM): 0.475
- relative viability ([7]; first compound 0.02 µM): 0.724
- relative viability ([7]; first compound 0.2 µM): 0.714
- relative viability ([7]; first compound 0.6325 µM): 0.75
- relative viability ([7]; first compound 2 µM): 0.694
- relative viability ([8]; first compound 0.02 µM): 0.58
- relative viability ([8]; first compound 0.2 µM): 0.53
- relative viability ([8]; first compound 0.6325 µM): 0.574
- relative viability ([8]; first compound 2 µM): 0.559
- relative viability ([9]; first compound 0.02 µM): 0.763
- relative viability ([9]; first compound 0.2 µM): 0.789
- relative viability ([9]; first compound 0.6325 µM): 0.944
- relative viability ([9]; first compound 2 µM): 0.817
- relative viability ([10]; first compound 0.02 µM): 0.605
- relative viability ([10]; first compound 0.2 µM): 0.275
- relative viability ([10]; first compound 0.6325 µM): 0.0993
- relative viability ([10]; first compound 2 µM): 0.0574
- relative viability ([11]; first compound 0.02 µM): 0.265
- relative viability ([11]; first compound 0.2 µM): 0.265
- relative viability ([11]; first compound 0.6325 µM): 0.379
- relative viability ([11]; first compound 2 µM): 0.277
- relative viability ([12]; first compound 0.02 µM): 0.726
- relative viability ([12]; first compound 0.2 µM): 0.685
- relative viability ([12]; first compound 0.6325 µM): 0.65
- relative viability ([12]; first compound 2 µM): 0.615
- relative viability ([13]; first compound 0.02 µM): 0.337
- relative viability ([13]; first compound 0.2 µM): 0.128
- relative viability ([13]; first compound 0.6325 µM): 0.216
- relative viability ([13]; first compound 2 µM): 0.202
- relative viability ([14]; first compound 0.02 µM): 0.305
- relative viability ([14]; first compound 0.2 µM): 0.292
- relative viability ([14]; first compound 0.6325 µM): 0.251
- relative viability ([14]; first compound 2 µM): 0.265
- relative viability ([15]; first compound 0.02 µM): 0.274
- relative viability ([15]; first compound 0.2 µM): 0.207
- relative viability ([15]; first compound 0.6325 µM): 0.209
- relative viability ([15]; first compound 2 µM): 0.175
- relative viability ([16]; first compound 0.02 µM): 1.07
- relative viability ([16]; first compound 0.2 µM): 0.995
- relative viability ([16]; first compound 0.6325 µM): 0.953
- relative viability ([16]; first compound 2 µM): 0.905
- relative viability ([17]; first compound 0.02 µM): 0.896
- relative viability ([17]; first compound 0.2 µM): 0.97
- relative viability ([17]; first compound 0.6325 µM): 1.11
- relative viability ([17]; first compound 2 µM): 0.901
- relative viability ([18]; first compound 0.02 µM): 0.993
- relative viability ([18]; first compound 0.2 µM): 0.877
- relative viability ([18]; first compound 0.6325 µM): 1.03
- relative viability ([18]; first compound 2 µM): 0.92
- relative viability ([19]; first compound 0.02 µM): 0.52
- relative viability ([19]; first compound 0.2 µM): 0.269
- relative viability ([19]; first compound 0.6325 µM): 0.487
- relative viability ([19]; first compound 2 µM): 0.348
- relative viability ([20]; first compound 0.02 µM): 0.486
- relative viability ([20]; first compound 0.2 µM): 0.437
- relative viability ([20]; first compound 0.6325 µM): 0.37
- relative viability ([20]; first compound 2 µM): 0.317
- relative viability ([21]; first compound 0.02 µM): 0.548
- relative viability ([21]; first compound 0.2 µM): 0.6
- relative viability ([21]; first compound 0.6325 µM): 0.347
- relative viability ([21]; first compound 2 µM): 0.256
- relative viability ([22]; first compound 0.02 µM): 0.9
- relative viability ([22]; first compound 0.2 µM): 0.858
- relative viability ([22]; first compound 0.6325 µM): 0.993
- relative viability ([22]; first compound 2 µM): 0.866
